Like-named read-outs stand apart in the source and are kept apart here.
What was measured:
[1] = test system: human embryonic kidney HEK 293 cells; assay: MTS cell viability assay, HEK 293 cells; type: cell-based
Experimental: (§1) Human embryonic kidney HEK 293 cells (ATCC® no. CRL-1573™), colorectal carcinoma HT-29 cells (ATCC® no. HTB-38™), melanoma RPMI-7951 cells (ATCC® no. HTB-66), and breast cancer MDA-MB-231 cells (ATCC® HTB-26™) were obtained from the American Type Culture Collection (Manassas, VA, USA). […] The cell cultures were maintained at 37 °C in humidified atmosphere containing 5% CO2. […] After three passages the cells were used for the experiments. […] Then samples were vacuum evaporated and dissolved in DMSO to their stock concentrations of 20 mM. Cells (1.0 × 10^4) were seeded in 96-well plates (Jet Biofil, Guangzhou, China) and cultured in 200 µL of complete culture medium for 24 h at 37 °C in 5% CO2 incubator.

[2] = test system: colorectal carcinoma HT-29 cells; assay: MTS cell viability assay, HT-29 cells; type: cell-based, human
Experimental: as §1

melanoma RPMI-7951 cells [3] = assay: MTS cell viability assay, RPMI-7951 cells; type: cell-based, human
Experimental: as §1

[4] = test system: breast cancer MDA-MB-231 cells; assay: MTS cell viability assay, MDA-MB-231 cells; type: cell-based, human
Experimental: as §1

[5] = test system: colorectal carcinoma HT-29 cells; assay: Soft agar colony formation assay, HT-29 cells; type: cell-based, human; settings: for colony growth of HT-29 cells (in words): concentrations of 0.5 µM and 1 µM; for colony growth of HT-29 cells (in words) / decrease of number of colonies of HT-29: soft agar; for colony formation of HT-29 cells (in words): nontoxic concentration of 0.5 µM; for decrease of number of colonies of HT-29: 1 µM, 14 days
Experimental: (§2) Compounds 1–6 were dissolved in sterile DMSO to prepare stock concentrations of 20 mM. Cells were treated with serially diluted compounds 1–6 (culture medium used as diluent) to give the intended final concentrations. The vehicle control is the cells treated with equivalent volume of DMSO (less than 0.5%) for all presented experiments.
(§3) Human cancer cells (2.4 × 10^4/mL) were seeded into 6-well plate and treated with compounds 1–6 (0.1, 0.5, and 1 µM) or cisplatin (3 µM) in 1 mL of 0.3% BME agar containing 10% FBS, 2 mM L-glutamine, and 25 µg/mL gentamicin. The cultures were maintained in a 37 °C, 5% CO2 incubator for 14 days, and the cell colonies were scored using a Motic microscope AE 20 (XiangAn, Xiamen, China) and ImageJ software bundled with 64-bit Java 1.8.0_112 (NIH, Bethesda, MD, USA).
(§4) Figure 3 Effect of compounds 1–6 on colony formation of human colorectal carcinoma HT-29, melanoma RPMI-7951, and breast cancer MDA-MB-231 cell lines. HT-29, RPMI-7951, and MDA-MB-231 cells (2.4 × 10^4 /mL) treated with/without investigated 1–6 (0.1, 0.5, and 1 µM) and subjected into a soft agar. The culture was maintained at 37 °C in a 5% CO2 atmosphere for 2 weeks. The colonies were counted under a microscope with the aid of the ImageJ software program (n = 6 for control and each compound, n—quantity of photos). The asterisks (* p < 0.05, ** p < 0.01, *** p < 0.001) indicate a significant decrease in colony formation in cells treated with compounds compared with the nontreated cells (control).

melanoma RPMI-7951 cells [6] = assay: Soft agar colony formation assay, RPMI-7951 cells; type: cell-based, human; settings: for colony growth of RPMI-7951 cells (in words): concentrations of 0.5 µM and 1 µM; for colony growth of RPMI-7951 cells (in words) / decrease of number of colonies of RPMI-7951: soft agar; for colony formation of RPMI-7951 cells (in words): nontoxic concentration of 0.5 µM; for decrease of number of colonies of RPMI-7951: 1 µM, 14 days
Experimental: as §2, §3, §4

[7] = test system: breast cancer MDA-MB-231 cells; assay: Soft agar colony formation assay, MDA-MB-231 cells; type: cell-based, human; settings: for colony growth of MDA-MB-231 cells (in words): concentrations of 0.5 µM and 1 µM; for colony growth of MDA-MB-231 cells (in words) / decrease of number of colonies of MDA-MB-231: soft agar; for colony formation of MDA-MB-231 cells (in words): nontoxic concentration of 0.5 µM; for decrease of number of colonies of MDA-MB-231: 1 µM, 14 days
Experimental: as §2, §3, §4

[8] = Homo sapiens, HEK293, 24 h, read-out: Inhibiting Concentration, (IC50), HEK 293, a
[9] = Homo sapiens, HT-29, 24 h, read-out: Inhibiting Concentration, (IC50), HT-29, a
[10] = Homo sapiens, RPMI-7951, 24 h, read-out: Inhibiting Concentration, (IC50), RPMI-7951, a
[11] = Homo sapiens, MDA-MB-231, 24 h, read-out: Inhibiting Concentration, (IC50), MDA-MB-231, a
[12] = Homo sapiens, HEK293, 24 h, individual compounds, 24 h, MTS, read-out: Inhibiting Concentration, (IC50), HEK 293, a
[13] = Homo sapiens, HT-29, 24 h, individual compounds, 24 h, MTS, read-out: Inhibiting Concentration, (IC50), HT-29, a
[14] = Homo sapiens, RPMI-7951, 24 h, individual compounds, 24 h, MTS, read-out: Inhibiting Concentration, (IC50), RPMI-7951, a
[15] = Homo sapiens, MDA-MB-231, 24 h, individual compounds, 24 h, MTS, read-out: Inhibiting Concentration, (IC50), MDA-MB-231, a

Row | SMILES | IC50 [1, 8] [µM] | IC50 [2, 9] [µM] | IC50 (melanoma RPMI-7951 cells [3]; [10]) [µM] | IC50 [4, 11] [µM] | colony growth of HT-29 cells (in words) [5] | colony formation of HT-29 cells (in words) [5] | colony growth of RPMI-7951 cells (in words) (melanoma RPMI-7951 cells [6]) | colony formation of RPMI-7951 cells (in words) (melanoma RPMI-7951 cells [6]) | colony growth of MDA-MB-231 cells (in words) [7] | colony formation of MDA-MB-231 cells (in words) [7] | IC50 [1, 12] [µM] | IC50 [2, 13] [µM] | IC50 (melanoma RPMI-7951 cells [3]; [14]) [µM] | IC50 [4, 15] [µM] | decrease of number of colonies of HT-29 [5] [%] | decrease of number of colonies of RPMI-7951 (melanoma RPMI-7951 cells [6]) [%] | decrease of number of colonies of MDA-MB-231 [7] [%] | other results
1 | CO[C@@H]1[C@@H](O)[C@H](O[C@@H]2[C@@H](O)[C@H](O[C@H]3[C@H](O)[C@@H](O[C@@H]4OC[C@@H](O)[C@H](O)[C@H]4O)[C@H](O[C@H]4[C@H](O[C@H]5CC[C@]6(C)[C@@H]7CCC89C(=O)O[C@@](C)(/C=C\C=C(C)C)[C@H]8[C@@H](OC(C)=O)C[C@@]9(C)C7=CC[C@H]6C5(C)C)OC[C@@H](O)[C@@H]4O)O[C@@H]3C)O[C@H](CO)[C@H]2O)OC[C@H]1O (stereo partly shown) [Compound 4, cucumarioside C1] | 5.5 ± 0.3 | 5.3 ± 0.2 | 5.8 ± 1.2 | 3.6 ± 0.2 | almost completely suppressed | almost completely suppressed | almost completely suppressed | almost completely suppressed | almost completely suppressed | almost completely suppressed |  |  |  |  |  |  |  | 
2 | CO[C@@H]1[C@@H](O)[C@H](O[C@@H]2[C@@H](O)[C@H](O[C@H]3[C@H](O)[C@@H](O[C@@H]4OC[C@@H](O)[C@H](O)[C@H]4O)[C@H](O[C@H]4[C@H](O[C@H]5CC[C@]6(C)[C@@H]7CCC89C(=O)O[C@@](C)(CCC=C(C)C)[C@H]8[C@@H](OC(C)=O)C[C@@]9(C)C7=CC[C@H]6C5(C)C)OC[C@@H](O)[C@@H]4O)O[C@@H]3C)O[C@H](CO)[C@H]2O)OC[C@H]1O (stereo partly drawn) [Compound 3, 3β-O-{3-O-methyl-β-D-xylopyranosyl-(1→3)-β-D-glucopyranosyl-(1→4)-[β-D-xylopyranosyl-(1→2)]-β-D-quinovopyranosyl-(1→2)-β-D-xylopyranosyl}-16β-acetoxyholosta-7,24-diene] |  |  |  |  | almost completely suppressed | almost completely suppressed | almost completely suppressed | almost completely suppressed | almost completely suppressed | almost completely suppressed | 6.7 ± 0.2 | 6.2 ± 0.3 | 23.7 ± 0.4 | 6.4 ± 0.4 |  |  |  | 
3 | CO[C@@H]1[C@@H](O)[C@H](O[C@@H]2[C@@H](O)[C@H](O[C@H]3[C@H](O)[C@@H](O[C@@H]4OC[C@@H](O)[C@H](O)[C@H]4O)[C@H](O[C@H]4[C@H](O[C@H]5CC[C@]6(C)[C@@H]7CCC89C(=O)O[C@@](C)(/C=C/C=C(C)C)[C@H]8[C@@H](OC(C)=O)C[C@@]9(C)C7=CC[C@H]6C5(C)C)OC[C@@H](O)[C@@H]4O)O[C@@H]3C)O[C@H](CO)[C@H]2O)OC[C@H]1O (stereo partly shown) [Compound 5, cucumarioside C2] | 7.9 ± 0.9 | 5.5 ± 0.6 | 5.9 ± 0.9 | 4.4 ± 0.09 | almost completely suppressed | almost completely suppressed | almost completely suppressed | almost completely suppressed | almost completely suppressed | almost completely suppressed |  |  |  |  |  |  |  | 
4 | C=C(C)[C@H]1[C@@H]2C[C@@]3(C)C4=CC[C@H]5C(C)(C)[C@@H](O[C@@H]6OC[C@@H](O)[C@H](O)[C@H]6O[C@@H]6O[C@H](C)[C@@H](O[C@@H]7O[C@H](CO)[C@@H](O)[C@H](O[C@@H]8OC[C@@H](O)[C@H](OC)[C@H]8O)[C@H]7O)[C@H](O)[C@H]6O)CC[C@]5(C)[C@@H]4CCC13C(=O)O2 [Compound 6, cucumarioside A10] | 6.3 ± 0.6 | 7.8 ± 0.7 | 5.8 ± 2.6 | 5.5 ± 0.1 |  |  |  |  |  |  |  |  |  |  | 28 | 45 | 40 | 
5 | N.N.[Cl][Pt][Cl] [cisplatin, reference compound] |  |  |  |  |  |  |  |  |  |  |  |  |  |  |  |  |  | IC50 ([1]; after 48 h of treatment (data not shown), read-out: IC50 against HEK 293 cells): 64.6 µM; IC50 ([2]; after 48 h of treatment (data not shown), read-out: IC50 against HT-29 cells): 95.4 µM; IC50 (melanoma RPMI-7951 cells [3]; after 48 h of treatment (data not shown), read-out: IC50 against RPMI-7951 cells): 48.4 µM; IC50 ([4]; after 48 h of treatment (data not shown), read-out: IC50 against MDA-MB-231 cells): 7.8 µM
6 | C=C(C)[C@H]1[C@@H]2C[C@@]3(C)C4=CC[C@H]5C(C)(C)[C@@H](O[C@@H]6OC[C@@H](O)[C@H](O)[C@H]6O[C@@H]6O[C@H](C)[C@@H](O[C@@H]7O[C@H](CO)[C@@H](O)[C@H](O[C@@H]8OC[C@@H](O)[C@H](OC)[C@H]8O)[C@H]7O)[C@H](O)[C@H]6O[C@@H]6OC[C@@H](O)[C@H](O)[C@H]6O)CC[C@]5(C)[C@@H]4CCC13C(=O)O2 [Compound 2, 3β-O-{3-O-methyl-β-D-xylopyranosyl-(1→3)-β-D-glucopyranosyl-(1→4)-[β-D-xylopyranosyl-(1→2)]-β-D-quinovopyranosyl-(1→2)-β-D-xylopyranosyl}-23,24,25,26,27-pentanorlanosta-7,20(22)-diene-18(16)-lactone] |  |  |  |  |  |  |  |  |  |  | > 20 | > 20 | > 20 | > 20 | 22 | 26 | 25 | IC50 ([1]; individual compounds, 24 h, MTS, read-out: Inhibiting Concentration, (IC50), HEK 293, a): 28.6 ± 2.1 µM; IC50 ([2]; individual compounds, 24 h, MTS, read-out: Inhibiting Concentration, (IC50), HT-29, a): 26.2 ± 2.5 µM; IC50 (melanoma RPMI-7951 cells [3]; individual compounds, 24 h, MTS, read-out: Inhibiting Concentration, (IC50), RPMI-7951, a): 20.4 ± 1.6 µM; IC50 ([4]; individual compounds, 24 h, MTS, read-out: Inhibiting Concentration, (IC50), MDA-MB-231, a): 21.5 ± 0.5 µM

From publication PMC8001898, “New Triterpene Glycosides from the Far Eastern Starfish Solaster pacificus and Their Biological Activity” (Biomolecules, 2021)
